In EP4786466A1, “QUINAZOLINE DERIVATIVE, SALT THEREOF, AND PHARMACEUTICAL COMPOSITION COMPRISING SAME AS ACTIVE INGREDIENT” (Korea Research Institute of Chemical Technology, priority 2023, dated 2025):
Read-outs that look alike come from different tables or passages of the source.

Columns and labels:
[1] = target: T1, Recombinant GST-TAG-MASTL (Homo sapiens, UniProt Q96GX5); assay: HTRF-based kinase assay (HTRF KinEASE assay kit); assay type: biochemical; details: for activity at 1 µM: read-out: MASTL activity (%) HTRF (1 µM)
T1 construct: GST; purchased Thermo Fisher Scientific
T1 sequence (Q96GX5 1-879): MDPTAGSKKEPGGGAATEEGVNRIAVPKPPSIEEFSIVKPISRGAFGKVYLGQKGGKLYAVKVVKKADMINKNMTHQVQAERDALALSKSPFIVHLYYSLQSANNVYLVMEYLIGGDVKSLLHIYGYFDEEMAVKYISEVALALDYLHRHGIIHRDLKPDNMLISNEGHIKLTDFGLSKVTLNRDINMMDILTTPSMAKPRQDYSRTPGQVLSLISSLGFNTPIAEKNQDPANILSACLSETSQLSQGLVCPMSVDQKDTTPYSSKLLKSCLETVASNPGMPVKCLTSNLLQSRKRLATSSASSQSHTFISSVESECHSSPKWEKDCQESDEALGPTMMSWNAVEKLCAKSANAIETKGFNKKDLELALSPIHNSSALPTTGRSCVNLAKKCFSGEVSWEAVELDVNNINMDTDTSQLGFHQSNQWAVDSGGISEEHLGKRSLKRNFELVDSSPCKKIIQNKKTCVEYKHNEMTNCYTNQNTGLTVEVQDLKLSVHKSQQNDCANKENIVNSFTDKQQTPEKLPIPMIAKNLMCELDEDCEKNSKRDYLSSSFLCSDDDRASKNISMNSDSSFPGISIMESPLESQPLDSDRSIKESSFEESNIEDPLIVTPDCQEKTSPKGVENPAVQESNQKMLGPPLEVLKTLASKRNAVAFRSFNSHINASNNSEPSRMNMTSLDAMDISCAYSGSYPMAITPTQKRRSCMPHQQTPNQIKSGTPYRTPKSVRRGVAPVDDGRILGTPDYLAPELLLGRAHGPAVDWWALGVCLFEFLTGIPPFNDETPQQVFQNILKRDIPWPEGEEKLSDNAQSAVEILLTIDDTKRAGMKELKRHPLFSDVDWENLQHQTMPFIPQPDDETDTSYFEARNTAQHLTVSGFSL
Description: Recombinant GST-TAG-MASTL (Thermo Fisher Scientific, MA, USA) was used for HTRF-based kinase assays. The HTRF KinEASE assay kit (CisBio, MA, USA) was used according to the manufacturer's instructions.

[2] = system: pENSA; assay: pENSA level by immunofluorescence (described method: in vitro kinase analysis with GST-tag-MASTL and His-tag-ENSA); assay type: cell-based; details: for pENSA (%) Immunofluor ecense (1 µM): compound 1 µM; for IC50: read-out: IC50(nM) pENSA
Method in brief: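 In vitro kinase reaction using recombinant GST-tagged MASTL with His-tagged ENSA as substrate; phosphorylated ENSA (pENSA) serves as read-out of MASTL activity. Cell lines named: MCF7 breast cancer and MCF10A.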

[3] = in vitro; details: human, mcf10a cells
Description: (§1) MCF7 breast cancer cell lines and MCF10A normal breast cancer cell lines were treated with serial dilutions of the compounds of the present invention ranging from 1 µM to 15.63 nM for 72 hours. Cell viability was measured by the WST-8 assay (Cyto XTM cell viability assay kit; LPS solution, Daejeon, Korea) according to the manufacturer's instructions.

[4] = system: MCF7 breast cancer cell lines; assay: Cell viability analysis, WST-8 assay, MCF7; details: for viability at 1.25 µM / IC50 / viability at 1 µM: Homo sapiens, MCF7, 72 h; for viability at 1.25 µM: read-out: Cell viability (%) WST-8, MCF7, footnote a: concentration 1.25 µM, 72 hours; for viability at 1 µM: read-out: Cell viability (%) WST-8, MCF7 (1 µM), compound 1 µM, 72 hours
Description: as §1

[5] = footnote b: concentration 10 µM, read-out: MASTL activity (%) HTRF
[6] = read-out: IC50 Cell viability (MCF7)
[7] = HTRF, read-out: IC50(nM) MASTL activity

SMILES | pENSA (%) Immunofluor ecense (1 µM) [2] [%] | activity at 1 µM ([1]; compound 1 µM) [%] | viability at 1 µM [3] [%] | viability at 1 µM [4] [%] | further results
CS(=O)(=O)Cc1ccc(Nc2nc(Nc3cc(C4CC4)[nH]n3)c3ccccc3n2)cc1 [compound 4f, M^4-(5-cyclopropyl-1G-pyrazol-3-yl)-M^2-(4-((methylsulfonyl)methyl)phenyl)quinazoline-2,4-diamine] | 50.5 |  |  |  | activity at 10 µM [1, 5]: 29%; IC50 [2]: 899 nM; viability at 1.25 µM [3]: 33%; viability at 1.25 µM [4]: 94.5%; IC50 [4, 6]: 2300 nM
NS(=O)(=O)c1ccc(Nc2nc(Nc3cc(C4CC4)[nH]n3)c3ccccc3n2)cc1 [compound 4g, 4-((4-((5-cyclopropyl-1G-pyrazol-3-yl)amino)quinazolin-2-yl)amino)benzenesulfonamide] | 10.4 |  |  |  | IC50 [1]: 189 nM; activity at 10 µM ([1]; read-out: MASTL activity (%) HTRF): 18.6%; IC50 [2]: 344 nM; viability at 1.25 µM [3]: 9.3%; viability at 1.25 µM [4]: 85.3%; IC50 [4, 6]: 2700 nM
CN(C)S(=O)(=O)c1ccc(Nc2nc(Nc3cc(C4CC4)[nH]n3)c3ccccc3n2)cc1 [compound 4j, 4-((4-((5-cyclopropyl-1G-pyrazol-3-yl)amino)quinazolin-2-yl)amino)-M,M-dimethylbenzenesulfonamide] | 5.2 |  |  |  | IC50 [1, 7]: 527 nM; activity at 1.25 µM ([1]; footnote a: concentration 1.25 µM, read-out: MASTL activity (%) HTRF): 27%; IC50 [2]: 420 nM; viability at 1.25 µM [3]: 21.6%; viability at 1.25 µM [4]: 22.8%; IC50 ([4]; read-out: IC50(nM) Cell viability (MCF7)): 713 nM; selectivity for breast cancer cells over normal cells in the cell viability assay ([4]; MCF7 versus MCF10A): selectively inhibit only breast cancer cells
FC(F)(F)c1cc(Nc2nc(Nc3cc(C4CC4)[nH]n3)c3ccccc3n2)ccc1Cl [compound 4k, M^2-(4-chloro-3-(trifluoromethyl)phenyl)-M^4-(5-cyclopropyl-1G-pyrazol-3-yl)quinazoline-2,4-diamine] | 105 |  |  |  | activity at 10 µM [1, 5]: 59.2%; viability at 1.25 µM [3]: 115%; viability at 1.25 µM [4]: 80.8%
Cc1ccc(-c2nc3ccccc3s2)cc1Nc1nc(Nc2cc(C3CC3)[nH]n2)c2ccccc2n1 [compound 4l, M^2-(5-(benzo[c]thiazol-2-yl)-2-methylphenyl)-M^4-(5-cyclopropyl-1G-pyrazol-3-yl)quinazoline-2,4-diamine] | 88.6 | 81.5 | 118 | 100 | 
c1ccc2sc(-c3ccc(Nc4nc(Nc5cc(C6CC6)[nH]n5)c5ccccc5n4)cc3)nc2c1 [compound 4m, M^2-(4-(benzo[c]thiazol-2-yl)phenyl)-M^4-(5-cyclopropyl-1G-pyrazol-3-yl)quinazoline-2,4-diamine] | 88.8 | 73 | 85.8 | 110 | 
COC(=O)c1ccc(Nc2nc(Nc3cc(C4CC4)[nH]n3)c3ccccc3n2)cc1 [compound 4o, Methyl 4-((4-((5-cyclopropyl-1G-pyrazol-3-yl)amino)quinazolin-2-yl)amino)benzoate] | 19.2 | 53.8 | 79.4 | 53.4 | IC50 [2]: 680 nM
CC(C)(C)OC(=O)c1ccc(Nc2nc(Nc3cc(C4CC4)[nH]n3)c3ccccc3n2)cc1 [compound 4p, sdqs-butyl 4-((4-((5-cyclopropyl-1G-pyrazol-3-yl)amino)quinazolin-2-yl)amino)benzoate] | 56.2 | 58 | 86.8 | 100 | 
CC(C)(C)OC(=O)Cc1ccc(Nc2nc(Nc3cc(C4CC4)[nH]n3)c3ccccc3n2)cc1 [compound 4q, sdqs-butyl 2-(4-((4-((5-cyclopropyl-1G-pyrazol-3-yl)amino)quinazolin-2-yl)amino)phenyl)acetate] | 53.6 | 76.1 | 98.8 | 107 | 
O=C(O)c1ccc(Nc2nc(Nc3cc(C4CC4)[nH]n3)c3ccccc3n2)cc1 [compound 4r, 4-((4-((5-cyclopropyl-1G-pyrazol-3-yl)amino)quinazolin-2-yl)amino)benzoic acid] | 12 |  | 84.2 | 98.8 | activity at 1 µM [1]: 56.6%; IC50 [2]: 988 nM
CC(C)(C)OC(=O)N1CCC2(CC1)CCN(c1nc(Nc3cc(C4CC4)[nH]n3)c3ccccc3n1)CC2 [compound 6b, sdqs-butyl 9-(4-((5-cyclopropyl-1G-pyrazol-3-yl)amino)quinazolin-2-yl)-3,9-diazaspiro[5.5]undecane-3-carboxylate] | 98.2 | 43.5 | 122 | 116 | 
CC(C)(C)OC(=O)N1CC2(CCN(c3nc(Nc4cc(C5CC5)[nH]n4)c4ccccc4n3)CC2)C1 [compound 6c, sdqs-butyl 7-(4-((5-cyclopropyl-1G-pyrazol-3-yl)amino)quinazolin-2-yl)-2,7-diazaspiro[3.5]nonane-2-carboxylate] | 90.5 | 32.9 | 129 | 109 | IC50 [1, 7]: 796 nM
C1=C(c2ccccc2)CCN(c2nc(Nc3cc(C4CC4)[nH]n3)c3ccccc3n2)C1 [compound 6e, M-(5-cyclopropyl-1G-pyrazol-3-yl)-2-(4-phenyl-3,6-dihydropyridin-1(2G)-yl)quinazolin-4-amine] | 97 | 43.3 | 91.4 | 90.9 | IC50 [1, 7]: 569 nM
FC(F)(F)c1ccc(C2=CCN(c3nc(Nc4cc(C5CC5)[nH]n4)c4ccccc4n3)CC2)cc1 [compound 6f, M-(5-cyclopropyl-1G-pyrazol-3-yl)-2-(4-(4-(trifluoromethyl)phenyl)-3,6-dihydropyridin-1(2G)-yl)quinazolin-4-amine] | 110 | 55.8 | 102 | 91.9 | 
FC(F)(F)c1cccc(C2=CCN(c3nc(Nc4cc(C5CC5)[nH]n4)c4ccccc4n3)CC2)c1 [compound 6g, M-(5-cyclopropyl-1G-pyrazol-3-yl)-2-(4-(3-(trifluoromethyl)phenyl)-3,6-dihydropyridin-1(2G)-yl)quinazolin-4-amine] | 113 | 41.4 | 104 | 95 | 
C1=C(Cc2ccccc2)CCN(c2nc(Nc3cc(C4CC4)[nH]n3)c3ccccc3n2)C1 [compound 6h, 2-(4-benzyl-3,6-dihydropyridin-1(2G)-yl)-M-(5-cyclopropyl-1G-pyrazol-3-yl)quinazolin-4-amine] | 93 | 46 | 59.8 | 89.7 | IC50 [1, 7]: 995 nM
C1=C(c2cccc3ccccc23)CCN(c2nc(Nc3cc(C4CC4)[nH]n3)c3ccccc3n2)C1 [compound 6i, M-(5-cyclopropyl-1G-pyrazol-3-yl)-2-(4-(naphthalen-1-yl)-3,6-dihydropyridin-1(2G)-yl)quinazolin-4-amine] | 97.2 | 74.6 | 122 | 113 | 
Fc1ccccc1C1=CCN(c2nc(Nc3cc(C4CC4)[nH]n3)c3ccccc3n2)CC1 [compound 6k, M-(5-cyclopropyl-1G-pyrazol-3-yl)-2-(4-(2-fluorophenyl)-3,6-dihydropyridin-1(2G)-yl)quinazolin-4-amine] | 82 | 40.6 | 90.8 | 91 | IC50 [1, 7]: 406 nM
